Results published in patent US11718614B2, “Compounds and methods for treatment of hedgehog pathway associated conditions” (Suzhou Mednes Pharma Tech Co., Ltd., priority 2018, dated 2023).

Each molecule was assayed on tumor cells from medulloblastoma developed from mice with deficiency in Patched1 gene (assay: MB assay: survival of medulloblastoma tumor cells by MTT after 48 hours). Details: Mus musculus, tumor cells treated 48 hours, cell survival by MTT.
Assay type: cell-based
Method: To test the effect of the novel compounds on the proliferation of tumor cell, we isolated tumor cells from medulloblastoma developed from mice with deficiency in Patched1 gene. Tumor cells were plated in vitro as previously described, and treated with various concentration of compounds for 48 hours. Tumor cells cultured were then harvested to measure cell survival based on MTT assay. The IC50 value for each compound was calculated using Prism the statistical software.
Table 1 below summarizes the IC50 data obtained using MB assay for exemplary compounds of the invention. IC50 values are shown as A, B, C, or D. A represents IC50 value between 1.0 μM and 5.0 μM; B is between 5.0 μM and 10 μM; C is between 10 μM to 20 μM; and D indicates greater than 20 μM.
With `CCOC(=O)C(C)(C)Cc1c(SCC(C)(C)C)c2cc(C(C)C)ccc2n1Cc1ccc(Cl)cc1` [Compound 4, ethyl 3-(1-(4-chlorobenzyl)-5-isopropyl-3-(neopentylthio)-1H-indol-2-yl)-2,2-dimethylpropanoate] the IC50 was greater than 20 µM.
Molecule `CC(C)c1ccc2c(c1)c(C(=O)C1CCC1)c(CC(C)(C)C(=O)O)n2Cc1ccc(Cl)cc1` [Compound 1, 3-(1-(4-chlorobenzyl)-3-(cyclobutanecarbonyl)-5-isopropyl-1H-indol-2-yl)-2,2-dimethylpropanoic acid] has an IC50 of 1 to 5 µM.
`CC(C)Cc1ccc(C(C)c2nc3cc(Br)ccc3n2Cc2ccccc2Cl)cc1` (stereo not drawn) [Compound 52] gave an IC50 greater than 20 µM.
`CCc1noc(C(C)(C)Cc2c(SC(C)(C)C)c3cc(OC)ccc3n2Cc2ccc(Cl)cc2)n1` [Compound 33] showed an IC50 greater than 20 µM.
`CC(C)c1ccc2c(c1)c([S+]([O-])CC(C)(C)C)c(CC(C)(C)C(=O)O)n2Cc1ccc(Cl)cc1` (stereo not drawn) [Compound 5] was tested, and the IC50 was greater than 20 µM.
`CCOC(=O)C(C)(C)Cc1c(C(=O)C2CCC2)c2cc(C(C)C)ccc2n1Cc1ccc(Cl)cc1` [Compound 2, ethyl 3-(1-(4-chlorobenzyl)-3-(cyclobutanecarbonyl)-5-isopropyl-1H-indol-2-yl)-2,2-dimethylpropanoate] showed an IC50 greater than 20 µM.
In the case of `CCOC(=O)C(C)(C)Cc1c(C(=O)c2ccc(Cl)cc2)c2ccc(O)cc2n1CC1CCC1` [Compound 30, Ethyl 3-(3-(4-chlorobenzoyl)-1-(cyclobutylmethyl)-6-hydroxy-1H-indol-2-yl)-2,2-dimethylpropanoate], the IC50 is reported as greater than 20 µM.
`COc1ccc2c(c1)nc(C(C)c1ccc(CCO)cc1)n2Cc1ccccc1Cl` (stereo not drawn) [Compound 47] was tested, and the IC50 was greater than 20 µM.
For `COc1ccc2c(c1)c(-c1ccc(CC(C)C)cc1)cn2Cc1ccccc1Cl` [Compound 56, 1-(2-chlorobenzyl)-3-(4-isobutylphenyl)-5-methoxy-1H-indole], the IC50 was greater than 20 µM.
For `COC(=O)C(C)(C)Cc1c(C(=O)c2ccc(Cl)cc2)c2ccc(C(C)C)cc2n1CC1CCC1` [Compound 28, methyl 3-(3-(4-chlorobenzoyl)-1-(cyclobutylmethyl)-6-isopropyl-1H-indol-2-yl)-2,2-dimethylpropanoate], the IC50 was greater than 20 µM.
Work on `CCOC(=O)C(C)(C)Cc1c(S(=O)(=O)CC(C)(C)C)c2cc(C(C)C)ccc2n1Cc1ccc(Cl)cc1` [Compound 8] yielded an IC50 of 10 to 20 µM.
`COC(=O)Cc1ccc(C(C)c2nc3cc(OC)ccc3n2Cc2ccccc2Cl)cc1` (stereo not drawn) [Compound 46] was tested, and the IC50 was 10 to 20 µM.
